Results from patent US20260365855A1, “TARGETED QUINOCYANINE DYES FOR THE INTRAOPERATIVE DELINEATION OF CANCER MARGINS” (THE TRUSTEES OF THE UNIVERSITY OF PENNSYLVANIA, priority 2022, published 2026).
“Also recorded” adds a separate entry of the source.

Columns and labels:
Absorbance spectra = type: physicochemical; conditions: 5 μM in DMSO
Protocol: Absorbance spectra. The absorbances for compound 1 and compound 2 were obtained using a PerkinElmer Lambda 5 measuring absorbances in 1 nm steps from 500 to 1100 nm. The absorbance spectrum for compound 3 was obtained using a JASCO VI 70 measuring in 1 nm steps from 850 to 1150 nm. All compounds were dissolved in DMSO at a concentration of 5 μM.
Synthesis of compound 1, compound 2 and compound 3 was verified by MALDI-TOF mass spectrometry with further confirmation by ^1H-NMR.

KLN 205 cells = experiment: Cell uptake (NIR-II emission of cell lysates); type: cell-based; conditions: 10 μM, 2 h, 37 °C; lysed with 0.5% Triton X-100
Protocol: KLN 205 cells were seeded into an 8 chamber slide at 15,000 cells/well. Cells were incubated overnight at 37 °C and 5% CO2. Cells were then treated in 500 μL with 10 μM of compound 1, compound 2 or compound 3, or with vehicle (DMSO). The slide was incubated for 2 hours with treatment at 37 °C and 5% CO2.
Following treatment, the solution was aspirated, and cells were rinsed twice with 500 μL of ice-cold DPBS. Triton X-100 was diluted to be 0.5% Triton, and 500 μL of this solution were added to each chamber for 10 min at 37 °C and 5% CO2 to lyse the cells. 100 μL were removed from each chamber and added to a 96-well black-well clear-bottom plate. The plate was then imaged for NIR-II emission using the PhotonEtc IR Vivo with excitation at 760, 808, 890, or 940 nm.
Cell uptake of compound 1, compound 2 and compound 3 was evaluated by incubating KLN 205 cells in 10 μM of compound 1, compound 2 and compound 3, or with DMSO for 2 hrs. Following incubation, cells were rinsed twice with ice-cold DPBS before lysing by treatment with Triton. The lysates were then transferred to a 96-well black-well clear-bottom plate and imaged for NIR-II fluorescence in the IR Vivo, as shown in FIG. 4.

Emission spectra = type: physicochemical; conditions: for NIR-II fluorescence: absorbance and emission spectra, DMSO
Protocol: Emission spectra. The emissions for compounds 1, 2 and 3 were obtained using a Horiba QuantaMaster with excitation at 900 nm and emissions recorded in 1 nm steps from 925 to 1300 nm. […]
Compound 3 has a maximum absorbance at 942 nm and maximum emission at 979 nm. The emission intensities were determined with excitation at 900 nm.

[1] = NIR-II fluorescence of compound 1 vs. JAS239 and ICG (plate imaging, IR Vivo); type: physicochemical; conditions: for NIR-II emissions; excitation requirement: discussion of NIR-I fluorophores, require excitation with a NIR-I laser; for NIR-II emission: emission 1,000-1,250 nm, DMSO, no tissue
Protocol: NIR-II Fluorescence of Compound 1 vs. JAS239 and ICG.
Compound 1, JAS239, and ICG were dissolved in DMSO and added to a 96-well black-well clear-bottom plate at concentrations from 1 μM to 100 μM. The plate was then imaged using the PhotonEtc IR Vivo using the NIR-II emission filter (1000-1250 nm) with excitation at 760 nm, 808 nm, 890 nm, or 940 nm.
Dyes were excited with excitation lasers at 760, 808, 890, and 940 nm and emissions were measured between 1,000 and 1,250 nm.

[2] = NIR-II range; cited from earlier work
[3] = Depth penetration comparisons of compound 1 vs. JAS239 and ICG through chicken breast tissue
Protocol: Depth Penetration Comparisons of Compound 1 vs. JAS239 and ICG.
Compound 1, JAS239, and ICG were diluted in DMSO and placed in a 96-well black-well clear-bottom plate at concentrations from 0.1 μM to 100 μM. The plate was then imaged using the PhotonEtc IR Vivo using the NIR-II emission filter with excitation at 760, 808, 890, or 940 nm. Wells were then covered with thinly sliced raw chicken breast tissue from 1 mm to 3 mm thick. Imaging was then repeated for each tissue thickness.
Chicken breast tissue was layered over wells containing varying concentrations of each fluorophore in 1 mm sections. Fluorescence in the NIR-II window was measured following excitation at 760, 808, 890, and 940 nm. […] Tissue scattering, absorption, and autofluorescence decreases at increasing wavelengths of light. Thus, the improved resolution of compound 1 with increasing wavelength of excitation laser likely resulted from improved tissue penetration of the excitation laser. Compound 1 has a maximum absorption at 970 nm resulting in strong excitation of the probe and fluorescence conversion.

Athymic Nu/Nu mice = experiment: In vivo imaging after tail vein injection; conditions: 40 nmol via tail vein
Protocol: Athymic Nu/Nu mice were injected with 40 nmol compound 1 through the tail vein in Normal Saline and filtered through a 0.22 μm filter.

[4] = 5 μM in DMSO, excitation at 900 nm
[5] = excitation lasers 760 and 808 nm
[6] = excitation lasers 890 and 940 nm

maximum absorbance (Absorbance spectra) | maximum emission (Emission spectra; [4]) | NIR-II fluorescence (Emission spectra) | NIR-II emission [1, 5] | NIR-II emission [1, 6] | NIR-II emission compared to ICG ([1]; IR Vivo, excited near its absorbance maximum) | distribution in ventral image (Athymic Nu/Nu mice; 5 mins after injection) | distribution in ventral image (Athymic Nu/Nu mice; 2 hours after injection) | Molecule | NIR-II fluorescence of cell lysates (cell uptake) (KLN 205 cells) | NIR-II emissions; excitation requirement [1] | NIR-II fluorescence (background statement) [2] | NIR-II emission intensity, no tissue present [3] | absorbance maxima, shift compared to compound 3 (Absorbance spectra) | emission maxima, shift compared to compound 3 (Emission spectra; [4]) | emission intensity (comparison of compounds 1, 2 and 3) (Emission spectra; [4])
942 nm | 979 nm | measurable NIR-II fluorescence |  |  |  |  |  | OCCN1C=C/C(=C/C=C/C=C/C=C/c2cc[n+](CCO)c3ccccc23)c2ccccc21.[Cl-] [compound 3, l-(2-hydroxyethyl)-4-((JE,3E,5E)-7-((Z)-J-(2-hydroxyethyl)-quinoline-4(JH)-ylidene)hepta-1,3,5-trien-1-yl)quinoline-1-ium chloride] | no fluorescence was observed |  |  |  |  |  | 
 |  |  | strongest NIR-II emissions | disappeared |  |  |  | CC1(C)C(/C=C/C=C/C=C/C=C2\N(CCCCS(=O)(=O)O)c3ccc4ccccc4c3C2(C)C)=[N+](CCCCS(=O)(=O)[O-])c2ccc3ccccc3c21 [ICG, indocyanine green] |  | measurable emissions in the NIR-II window | measurable fluorescence at even longer wavelengths of light in the near-infrared II (NIR-II) range | most intense emissions in the NIR-II window |  |  | 
970 nm | 1007 nm | measurable NIR-II fluorescence |  |  |  |  |  | 4-((E)-2((E)-2-chloro-3-(2-((Z)-1-hydroxyethylquinolin-4(JH)-ylidene)-ethylidene)cyclohex-1-en-1-yl)vinyl)-1-hydroxyethylquinolin-1-ium chloride [compound 2] | measurable emissions; also recorded: measurable fluorescence in the NIR-II window |  |  |  | further shifted into the NIR-II window compared to compound 3 | further shifted into the NIR-II window compared to compound 3 | 

The next lines start with the molecule.

Molecule | maximum absorbance (Absorbance spectra) | maximum emission (Emission spectra; [4]) | NIR-II fluorescence (Emission spectra) | NIR-II emission [1, 5] | NIR-II emission [1, 6] | NIR-II emission compared to ICG ([1]; IR Vivo, excited near its absorbance maximum) | distribution in ventral image (Athymic Nu/Nu mice; 5 mins after injection) | distribution in ventral image (Athymic Nu/Nu mice; 2 hours after injection) | NIR-II fluorescence of cell lysates (cell uptake) (KLN 205 cells) | NIR-II emissions; excitation requirement [1] | NIR-II fluorescence (background statement) [2] | NIR-II emission intensity, no tissue present [3] | absorbance maxima, shift compared to compound 3 (Absorbance spectra) | emission maxima, shift compared to compound 3 (Emission spectra; [4]) | emission intensity (comparison of compounds 1, 2 and 3) (Emission spectra; [4])
CC1(C)C(=C/C=C/C=C/C=C/C2=[N+](CCO)c3ccccc3C2(C)C)N(CCO)c2ccccc21 [JAS239] |  |  |  | strongest NIR-II emissions | disappeared |  |  |  |  | measurable emissions in the NIR-II window |  |  |  |  | 
CCN1C=C/C(=C/C=C2\CCCC(/C=C/c3cc[n+](CC)c4ccccc34)=C2Cl)c2ccccc21.[I-] [compound 1, 4-((E)-2((E)-2-chloro-3-(2-((Z)-J-ethylquinolin-4(JH)-ylidene)-ethylidene)cyclohex-1-en-1-yl)vinyl)-J-ethylquinolin-1-ium iodide] | 970 nm | 1010 nm | measurable NIR-II fluorescence |  | strong NIR-II signal; also recorded: only compound 1 had measurable fluorescence in the NIR-II window | comparable NIR-II emissions to ICG | in the liver | in the throat, liver and intestines | measurable emissions; also recorded: measurable fluorescence in the NIR-II window |  |  |  | further shifted into the NIR-II window compared to compound 3 | further shifted into the NIR-II window compared to compound 3 | most intense emission; also recorded: highest fluorescence with an emission maximum in the NIR-II window
